The record followed here is patent publication US20250311759A1, “ORGANIC COMPOUNDS” (GIVAUDAN SA, priority 2022, published 2025).

What all share (type): in vivo
Test [1] deals with sensory panel. The test can be described thus: Effect on commercially available mayonnaise, sensory panel. The settings on record: 70 ppm in mayonnaise. From the text: Samples of commercially available mayonnaise with and without addition of 1H-imidazole have been compared by a sensory panel.
Samples of commercially available mayonnaise with addition of 2-(1H-imidazol-4-yl)acetic acid or benzimidazole and without have been compared by a sensory panel.

Test [2] relates to sensory panel. Put plainly: Effect on commercially available ketchup, sensory panel. From the text: Samples of commercially available ketchup with and without addition of 2-(1H-imidazol-4-yl)acetic acid or benzimidazole have been compared by a sensory panel.
Test [3] concerns sensory panel. The test can be described thus: Effect on commercially available cheese sauce, sensory panel. From the text: The effect of 1H-imidazole on a commercially available cheese sauce was explored.
Therefore, a cheese sauce has been compared by a sensory panel with a sample of the sauce further comprising 70 ppm of 1H-imidazole.
The effect of 2-(1H-imidazol-4-yl)acetic acid on a commercially available cheese sauce was explored. Therefore, a cheese sauce has been compared by a sensory panel with a sample of the sauce further comprising 50 ppm of 2-(1H-imidazol-4-yl)acetic acid.

The subject of test [4] is sensory panel. Put plainly: Bitter masking in aqueous KCl solution, sensory panel. From the text:
Two aqueous solutions have been prepared: • A) 0.3% KCl, and • B) 0.3% KCl and 70 ppm of 1H-imidazole.
(§1) The solutions were tasted by a sensory panel.
The following aqueous solutions have been prepared: • A) 0.3% KCl, and • B) 0.3% KCl and 100 ppm of 2-(1H-imidazol-4-yl)acetic acid, and • C) 0.3% KCl and 100 ppm of benzimidazole.

Test [5] concerns sensory panel. Put plainly: Effect on corn curls with cheese flavor, sensory panel. From the text: Corn curls with cheese flavor with and without addition of 1H-imidazole have been compared by a sensory panel.
Corn curls with cheese flavor with addition of 2-(1H-imidazol-4-yl)acetic acid or benzimidazole and without have been compared by a sensory panel.

Test [6] has as its system sensory panel. The test can be described thus: Salt enhancement in aqueous NaCl solution, sensory panel. Particulars: for taste description versus 0.5% NaCl solution: 50 ppm in 0.5% NaCl. From the text: Two aqueous solutions have been prepared: • A) 0.3% NaCl, and • B) 0.3% NaCl and 100 ppm of 1H-imidazole.
The solutions were tasted by a sensory panel. Solution A was described as “salty”.
Two aqueous solutions have been prepared: • A) 0.5% NaCl, and • B) 0.5% NaCl and 50 of ppm of 4-methyl-1H-imidazole.
The solutions were tasted by a sensory panel. Solution A was described as “salty”. Solution B was described as more salty in comparison to solution A.
Two aqueous solutions have been prepared: • A) 0.5% NaCl, and • B) 0.5% NaCl and 50 ppm of (2E)-3-(1H-imidazol-4-yl)prop-2-enoic acid (urocanic acid).
The following aqueous solutions have been prepared: • A) 0.3% NaCl, • B) 0.3% NaCl and 90 ppm of 2-(1H-imidazol-4-yl)acetic acid, and • C) 0.3% NaCl and 80 ppm of benzimidazole. • The solutions were tasted by a sensory panel. Solution A was described as “salty”.

Test [7] has as its system sensory panel. The test can be described thus: Effect on model broth base, sensory panel.
Text: A model broth base, comprising 0.3% of NaCl was compared with a sample further comprising 100 ppm of 1H-imidazole.
as §1
A model broth base, comprising 0.3% of NaCl was compared with a sample further comprising 70 ppm of 2-(1H-imidazol-4-yl)acetic acid, and 100 ppm of benzimidazole, respectively.
The solutions were tasted by a sensory panel. […] The solution comprising benzimidazole was preferred.

Test [8] has as its system sensory panel. The test can be described thus: Effect on potato chips, sensory panel. The settings on record: 70 ppm, potato chips with 1.5% salt. From the text: Potato chips with 1.5% salt have been tasted by a sensory panel with and without 1H-imidazole.
Test [9] concerns sensory panel. Put plainly: Umami enhancement in savoury model solution (NaCl, MSG, Ribotides), sensory panel. Particulars: 100 ppm in 0.5% NaCl, 0.03% MSG, 0.007% Ribotides. From the text: Two aqueous solutions have been prepared: • A) 0.5% NaCl, 0.03% MSG, 0.007% Ribotides, and • B) 0.5% NaCl, 0.03% MSG, 0.007% Ribotides and 100 ppm of 1H-imidazole.
The solutions were tasted by a sensory panel. Solution A is a model solution for savoury taste, containing MSG (monosodium glutamate) and Ribotides (IMP/GMP, 50/50 mixture) as savoury taste enhancer.

Test [10] has as its system sensory panel. Put plainly: Effect on soy based vegan burger, sensory panel. The settings on record: 70 ppm in soy based vegan burger; initial peak and last phase of salt perception. From the text:
Soy based vegan burgers with and without 1H-imidazole have been tasted by a sensory panel.

Setting [11] is: 150 ppm on corn curls with cheese flavor.
Where [12] appears, read: 100 ppm in model broth base comprising 0.3% NaCl.

Turning to `O=C(O)Cc1c[nH]cn1` [2-(1H-imidazol-4-yl)acetic acid], the “taste description versus pure mayonnaise” value in the test with sensory panel [1] was “clearly more salty with a less sour impression”. Besides, the “taste description versus pure ketchup” value in the test with sensory panel [2] (100 ppm in ketchup) was “clearly more salty, sour lingering and less sweet”. The “taste description versus cheese sauce” value in the test on sensory panel [3] (50 ppm in cheese sauce) was “preferred, having more saltiness and umami character”. In the test with sensory panel [4] (100 ppm in 0.3% KCl), the “panel preference / KCl masker rating” value is recorded as “preferred over solution C”; the “taste description versus 0.3% KCl solution” value is “less bitter, less metallic and more salty”. Moreover, the “taste description versus corn curls without compound” value in the test on sensory panel [5] (setting [11]) was “saltier, and the rich profile was enhanced”. Besides, the “taste description versus 0.3% NaCl solution” value with sensory panel [6] (90 ppm in 0.3% NaCl) is listed as “clearly more salty with a minearlic note”. In addition, in the test on sensory panel [7] (70 ppm in model broth base comprising 0.3% NaCl), the “taste description versus model broth base” value is “more mineral and salty”.

For `c1c[nH]cn1` [1H-imidazole], the “taste description versus pure mayonnaise” value with sensory panel [1] is “clearly more salty and had a stronger acetic acid character”. Further, the “taste description versus potato chips without compound” value in the test on sensory panel [8] is “higher salty impact and a lingering effect”. Further, in the test on sensory panel [9], the “taste description versus savoury model solution” value is “strong boost of saltiness and umami”. For the same compound, in the test with sensory panel [3] (70 ppm in cheese sauce), the “taste description versus cheese sauce” value was “more mineral and salty”. In addition, the “taste description versus 0.3% KCl solution” value in the test on sensory panel [4] (70 ppm in 0.3% KCl) was “less metallic and more salty”. Moreover, the “taste description versus corn curls without compound” value in the test on sensory panel [5] (100 ppm on corn curls with cheese flavor) is “saltier, and the rich profile was enhanced”. The “taste description versus 0.3% NaCl solution” value in the test with sensory panel [6] (100 ppm in 0.3% NaCl) was “clearly more salty with a mineralic note, low acidity, some astringency and freshness”. The “taste description versus burger without compound” value with sensory panel [10] is given as “more salty”. In addition, the “taste description versus model broth base” value in the test with sensory panel [7] (setting [12]) is “more mineral and salty as well as more umami”.

Consider `c1ccc2[nH]cnc2c1` [benzimidazole], for which the “taste description versus pure mayonnaise” value in the test on sensory panel [1] is listed as “clearly more salty with a less sour impression”. In addition, the “taste description versus pure ketchup” value with sensory panel [2] (70 ppm in ketchup) is “clearly more salty”. For the same compound, the “taste description versus 0.3% KCl solution” value in the test with sensory panel [4] (100 ppm in 0.3% KCl) is “less bitter, less metallic and more salty”. Moreover, in the test with sensory panel [5] (setting [11]), the “taste description versus corn curls without compound” value was “saltier, and the rich profile was enhanced”. Moreover, the “taste description versus 0.3% NaCl solution” value in the test on sensory panel [6] (80 ppm in 0.3% NaCl) is recorded as “clearly more salty with a sour fresh background”. In addition, the “panel preference in broth” value with sensory panel [7] (100 ppm benzimidazole versus 70 ppm 2-(1H-imidazol-4-yl)acetic acid in model broth base) was “preferred”. Moreover, the “taste description versus model broth base” value in the test with sensory panel [7] (setting [12]) is “more mineral and salty”.

As to `O=C(O)/C=C/c1c[nH]cn1` [urocanic acid, (2E)-3-(1H-imidazol-4-yl)prop-2-enoic acid], in the test on sensory panel [6], the “taste description versus 0.5% NaCl solution” value is reported as “more salty”.

On to `Cc1c[nH]cn1` [4-methyl-1H-imidazole], for which the “taste description versus 0.5% NaCl solution” value in the test with sensory panel [6] was “more salty”.
